# Data reported in publication PMC3179953, “In Mycoplasma hominis the OppA-mediated cytoadhesion depends on its ATPase activity” (BMC Microbiology, 2011).
# Biological target: T1, OppA^WT (OppA, P100), wild type purified from M. hominis (Metamycoplasma hominis, UniProt Q49551)
# T1 construct: native lipoprotein, solubilised with N-dodecylmaltoside from membranes and isolated with sepharose-coupled antibody DC10; phosphorylated
# Test: ammonium molybdate ATPase assay, inhibitor preincubated […] min
# Type: biochemical
# Conditions: 200 μM inhibitor
# T1 sequence (Q49551 entry or part of it): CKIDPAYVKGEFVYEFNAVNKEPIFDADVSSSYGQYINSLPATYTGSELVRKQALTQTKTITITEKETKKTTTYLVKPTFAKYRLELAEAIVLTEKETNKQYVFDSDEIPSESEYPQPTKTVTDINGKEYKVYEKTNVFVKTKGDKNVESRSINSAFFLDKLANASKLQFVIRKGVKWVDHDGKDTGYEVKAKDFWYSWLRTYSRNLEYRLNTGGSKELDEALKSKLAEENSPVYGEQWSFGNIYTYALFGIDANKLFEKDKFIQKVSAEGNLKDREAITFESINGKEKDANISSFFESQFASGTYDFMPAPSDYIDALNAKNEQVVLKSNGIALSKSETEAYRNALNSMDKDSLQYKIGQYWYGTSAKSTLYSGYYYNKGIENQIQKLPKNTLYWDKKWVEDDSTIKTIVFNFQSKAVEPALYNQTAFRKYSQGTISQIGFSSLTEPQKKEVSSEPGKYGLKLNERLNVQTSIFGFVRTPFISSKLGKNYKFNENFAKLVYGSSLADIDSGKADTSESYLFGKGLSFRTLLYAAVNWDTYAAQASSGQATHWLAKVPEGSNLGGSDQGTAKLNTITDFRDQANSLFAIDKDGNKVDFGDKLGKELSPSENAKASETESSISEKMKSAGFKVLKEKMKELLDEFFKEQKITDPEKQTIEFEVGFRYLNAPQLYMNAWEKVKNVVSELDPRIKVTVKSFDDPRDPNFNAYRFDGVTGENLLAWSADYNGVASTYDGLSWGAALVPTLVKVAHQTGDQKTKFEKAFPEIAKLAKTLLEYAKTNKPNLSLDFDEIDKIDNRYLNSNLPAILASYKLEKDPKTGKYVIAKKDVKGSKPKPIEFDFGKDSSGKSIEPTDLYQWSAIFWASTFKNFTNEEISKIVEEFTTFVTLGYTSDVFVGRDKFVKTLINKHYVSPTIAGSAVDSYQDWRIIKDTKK
compound,measurement,value
"O=S(=O)(O)c1cc(N=C=S)ccc1/C=C/c1ccc(N=C=S)cc1S(=O)(=O)O [DIDS, 4,4'-diisothiocyano-2,2'-stilbene-disulfonic acid]",relative ATPase activity at 200 μM,OppA was neither able to hydrolyze ATP (Figure 3A)
